Laboratory results: patent US20010051602A1, “Methods for increasing ApoE levels for the treatment of neurodegenerative disease” (priority 1997, published 2001)
“And” between values parts separate entries of the source, which are not always exact repeats. Equal entries are not always repeated.

Experiments:
[1] = test system: lipid peroxidation; experiment: clinical trial: lipid peroxidation in the CSF (TBARS); format: in vivo, human
Experimental: In order to assess the antioxidant properties of probucol we analyzed lipid peroxidation levels in the CSF of patients before and after one month of treatment with probucol (one month). In vitro lipid peroxidation was measured according to the method of Ohkawa et al. (Anal. Biochem., 95:351-358 (1979)) with some modifications. Briefly, cerebrospinal fluid samples from Alzheimer's disease patients were prepared in 20 volumes of phosphate buffer (pH=7) (95% N2, 5% CO2) with a Teflon homogenizer. After centrifugation (1000 g, 10 min., 2° C.), the supernatant was precipitated with trichloroacetic acid (72%) according to Brown et al. (Anal. Biochem., 189:136-139 (1989)). This procedure removed material such as non-lipid-derived malondialdehyde (MDA) that could interfere with lipid peroxidation measurement. After precipitation with trichloracetic acid and centrifugation (10000 g, 15 min., 2° C.), 100 μl of the supernatant containing human brain homogenates was used to measure MDA levels. These supernatants were incubated with 20 μl of SDS 10%, 150 μl of acetic acid 20% (pH 3.5), and 150 μl of thiobarbituric acid (TBA) (0.6% in 0.05 N NaOH) and heated at 100° C. for 60 min. This step was performed under a controlled atmosphere (95% N^2, 5% CO^2) in sealed vials to avoid formation of MDA during heating. At the end of the incubation, the reaction was stopped at 4° C. The MDA-TBA complex of TBARS (thiobarbituric acid reactive substances) was then extracted with 300 μl of butanol/pyridine (15:1) by strong shaking (for 30 sec.) followed by centrifugation (1000 g, 10 min., 4° C.).

[2] = test system: ApoE; experiment: clinical trial: ApoE levels in CSF of AD patients treated with probucol, immunoblot; format: in vivo, human; settings: probucol 1000 mg/day; for Average Change in ApoE (% baseline): one month of treatment, 8 patients
Experimental: Biological Marker: A lumbar puncture was performed at baseline and one month after treatment. The relative concentrations of ApoE levels in the CSF were determined by immunoblot as described by Poirer, J. et al., Neuroscience 55:81-90 (1993).
The cerebral spinal fluid (CSF) of the above subjects was analyzed for the concentration of ApoE protein by immunoblot using an internal standard. The samples for the first six patients were analyzed independently of the last two patients, thus the scales for patients 1-6 are different from the scales for patients 8 and 9.

[3] = test system: ApoE; experiment: in vivo effect of probucol on ApoE levels in murine tissues, immunoblot densitometry; settings: mice; for ApoE G/Dens (% Peak) / ApoE G/Dens-DD / ApoE G/DxA (% Total): pooled
Experimental: To extend the foregoing in vitro studies, the following animal study was conducted. […] At the end of ten days, the animals were sacrificed and the brain tissue collected, rapidly dissected, and the hippocampi were isolated. The livers, tissue, and blood were also collected. Tissue homogenates from all ten animals were pooled and the ApoE levels in the different tissues were determined by immunoblot.

[4] = test system: plasma apolipoproteins; settings: cited from earlier work
[5] = test system: Alzheimer's disease; experiment: clinical trial: ADAS-Cog (70 point scale); format: in vivo, human
Experimental: Neuropsychological Assessment: The Alzheimer's Disease Assessment Scale, Cognitive Part (ADAS-Cog) (see Rosen et al., Am. J. Psychiatr., 141:1356-1364 (1984)) was used as an objective neuropsychological measure. It consists of a battery of neuropsychological tests for different cognitive functions. The battery comes to a single score with a maximum of 70 points and is administered in about 45 minutes to patients. A 117 point extended scale version of this test was also used (see Table 5). […] The ADAS includes both cognitive (ADAS-Cog) and non-cognitive (ADAS-Noncog) subscales and the tests components of memory, language, and behavior. […] We further assessed the cognitive functioning of these patients with the extended scale ADAS-Cog test.

[6] = test system: ApoE-knockout mice; experiment: ApoE knockout mouse transient focal ischemia stroke model; format: in vivo; settings: 5 mg i.p. daily for ten days, if ApoE induction is necessary for neuroprotection
Experimental: To extend these animal studies, the ApoE knockout mouse may be exploited to assess the role of ApoE in probucol-mediated neuroprotection for stroke.
This protocol is carried out as similarly described for the rat model above, with some modifications. […] On the tenth day, animals are subjected to a transient focal ischemia by intraluminal occlusion of the middle cerebral artery. Infarct volume, neurological outcome, and cerebral flow will be monitored.

[7] = test system: Alzheimer's disease; experiment: clinical trial: ADAS-Cog (extended 117 point scale); format: in vivo, human
Experimental: Neuropsychological Assessment: The Alzheimer's Disease Assessment Scale, Cognitive Part (ADAS-Cog) (see Rosen et al., Am. J. Psychiatr., 141:1356-1364 (1984)) was used as an objective neuropsychological measure. It consists of a battery of neuropsychological tests for different cognitive functions. The battery comes to a single score with a maximum of 70 points and is administered in about 45 minutes to patients. A 117 point extended scale version of this test was also used (see Table 5). The extended 117 pt. […] The scoring method for this modified ADAS-Cog test ranges from 0 […].

[8] = Blood, 0.1 mg i.p. daily for ten days
[9] = Blood, 0.5 mg i.p. daily for ten days
[10] = Blood, 5.0 mg i.p. daily for ten days
[11] = Hippocampus, 0.1 mg i.p. daily for ten days
[12] = Hippocampus, 0.5 mg i.p. daily for ten days
[13] = Hippocampus, 5.0 mg i.p. daily for ten days
[14] = Liver, 0.1 mg i.p. daily for ten days
[15] = Liver, 0.5 mg i.p. daily for ten days
[16] = Liver, 5.0 mg i.p. daily for ten days
[17] = highest administered dose (5 mg), ten days
[18] = average of patients, baseline average 28.9
[19] = individual AD patient, higher score indicates poorer performance
[20] = average of patients, baseline average 66.8
[21] = individual AD patient, 117 is the best possible score

## CC(C)(Sc1cc(C(C)(C)C)c(O)c(C(C)(C)C)c1)Sc1cc(C(C)(C)C)c(O)c(C(C)(C)C)c1 [probucol]
[1]; 1 month, average for eight patients
  Lipid Peroxidation, Change (% Baseline), average: 100.9 % Baseline
[1]; 1 month, individual AD patient
  Lipid Peroxidation, Change (% baseline): 100.3 % baseline and 97.4 % baseline and 94.8 % baseline and 97.5 % baseline and 104.2 % baseline and 92.8 % baseline and 103.8 % baseline and 116.1 % baseline
[1]; individual AD patient, average of 4-6 determinations
  Lipid Peroxidation, 1 month: 0.705 Fluorescence Units and 0.686 Fluorescence Units and 0.687 Fluorescence Units and 0.692 Fluorescence Units and 0.744 Fluorescence Units and 0.691 Fluorescence Units and 0.731 Fluorescence Units and 0.824 Fluorescence Units
[2]; 1 month, individual AD patient
  Change in ApoE (% baseline): 118% baseline and 89% baseline and 87% baseline and 152% baseline and 105% baseline and 178% baseline and 136% baseline and 133% baseline
[2]; individual AD patient, scales of patients 1-6 differ from patients 8 and 9
  ApoE 1 month (ROD): 2.59 ROD and 7.14 ROD and 9.17 ROD and 0.1086 ROD and 0.0861 ROD and 8.03 ROD and 14.81 ROD and 10.27 ROD
[2]
  Average Change in ApoE (% baseline): 125%
[2]; listed as Probucol
  Average Change in ApoE (% baseline): 125%
[3]; [8]
  ApoE G/Dens (% Peak): 70.886 % Peak
  ApoE G/Dens-DD: 0.2783
  ApoE G/DxA (% Total): 19.187 % Total
[3]; [9]
  ApoE G/Dens (% Peak): 57.610 % Peak
  ApoE G/Dens-DD: 0.2262
  ApoE G/DxA (% Total): 14.885 % Total
[3]; [10]
  ApoE G/Dens (% Peak): 45.847 % Peak
  ApoE G/Dens-DD: 0.1800
  ApoE G/DxA (% Total): 11.846 % Total
[3]; [11]
  ApoE G/Dens (% Peak): 18.571 % Peak
  ApoE G/Dens-DD: 0.0729
  ApoE G/DxA (% Total): 4.570 % Total
[3]; [12]
  ApoE G/Dens (% Peak): 14.958 % Peak
  ApoE G/Dens-DD: 0.0587
  ApoE G/DxA (% Total): 3.497 % Total
[3]; [13]
  ApoE G/Dens (% Peak): 25.469 % Peak
  ApoE G/Dens-DD: 0.1000
  ApoE G/DxA (% Total): 5.954 % Total
[3]; [14]
  ApoE G/Dens (% Peak): 21.386 % Peak
  ApoE G/Dens-DD: 0.0840
  ApoE G/DxA (% Total): 5.263 % Total
[3]; [15]
  ApoE G/Dens (% Peak): 11.315 % Peak
  ApoE G/Dens-DD: 0.0444
  ApoE G/DxA (% Total): 2.506 % Total
[3]; [16]
  ApoE G/Dens (% Peak): 8.268 % Peak
  ApoE G/Dens-DD: 0.0325
  ApoE G/DxA (% Total): 1.933 % Total
[3]; [17]
  levels of ApoE in the blood, % of the control value: 60%
  levels of ApoE in the liver, % of the control value: 60%
[3]; highest dose evaluated (5 mg), ten days
  levels of ApoE in the brain, % of the control value: approximately 150%
[4]; human, in vivo
  total plasma apoB, apoA-1, apoA-II, apoC-II and apoC-III: lower
[4]; probucol-treated hypercholesterolemic patients
  circulating ApoE levels: increased
[4]; subjects with a very high physiological concentration of ApoE
  effectiveness in subjects with apoE2/2 genotype: totally uneffective
[5]; [18]
  ADAS-Cog (70 point scale) score, 3 months, Average: 29.5
  ADAS-Cog (70 point scale) score, 6 months, Average: 30.13
[5]; [19]
  ADAS-Cog (70 point scale) score, 3 months: 37 and 41 and 22 and 18 and 27 and 29 and 34 and 28
  ADAS-Cog (70 point scale) score, 6 months: 40 (2×) and 44 and 16 and 17 and 25 and 36 and 23
[6]
  benefit in ApoE-knockout animals: little or no benefit
[7]; [20]
  ADAS-Cog (117 point scale) score, 3 months, Average: 65.6
  ADAS-Cog (117 point scale) score, 6 months, Average: 68.1
[7]; [21]
  ADAS-Cog (117 point scale) score, 3 months: 73 (2×) and 51 and 63 (3×) and 83 and 56
  ADAS-Cog (117 point scale) score, 6 months: 74 and 49 and 82 (2×) and 63 and 58 and 72 and 65
[7]; six month treatment, eight patients
  number of patients that appeared to stabilize or improve, ADAS-Cog (117 point scale): five
